# Measurements taken from US20120270237A9, “METHODS FOR THE IDENTIFICATION OF KINASE INTERACTING MOLECULES AND FOR THE PURIFICATION OF KINASE PROTEINS” (Cellzone AG, priority 2009, published 2012).
# Legend:
# Experiment in all cases: Kinobeads competition binding, HL60 cell lysate
# Set-up in all cases: endogenous in cells; host or cells: HL60
# Settings in all cases: 10 μM free compound
# MPSK1 = MPSK1 (Homo sapiens, UniProt O75716)
# Protocol: (§1) To one aliquot of cell lysate 10 μM of the free compound (FIG. 3, CZC31326) was added and allowed to bind to proteins in the lysate. Then the affinity matrix with the immobilized compound (Example 1) was added to capture proteins that were not interacting with the previously added free compound. Beads were separated from the lysate and bead bound proteins were eluted in SDS sample buffer and subsequently separated by SDS-Polyacrylamide gel electrophoresis (FIG. 4). Suitable gel bands were cut out and subjected to in-gel proteolytic digestion with trypsin. The second lysate aliquot was processed identically, however no free compound was added (DMSO solvent control). Peptides originating from samples 1 and 2 were labeled with iTRAQ reagents (iTRAQ 114 and iTRAQ 117) and the combined samples were analyzed with a nano-flow liquid chromatography system coupled online to a tandem mass spectrometer (LC-MS/MS) experiment followed by iTRAQ reporter ion quantification in the MS/MS spectra (Ross et al., 2004. Mol. Cell. Proteomics 3(12):1154-1169). Further experimental protocols can be found in WO2006/134056 and a previous publication (Bantscheff et al., 2007. Nature Biotechnology 25, 1035-1044). Sepharose-beads with the immobilized compound (100 μl beads per pull-down experiment) were equilibrated in lysis buffer and incubated with a cell lysate sample containing 50 mg of protein on an end-over-end shaker (Roto Shake Genie, Scientific Industries Inc.) for 2 hours at 4° C. Beads were collected, transferred to Mobicol-columns (MoBiTech 10055) and washed with 10 ml lysis buffer containing 0.4% NP40 detergent, followed by 5 ml lysis buffer containing 0.2% detergent. To elute bound proteins, 60 μl 2×SDS sample buffer was added to the column. The column was incubated for 30 minutes at 50° C. and the eluate was transferred to a siliconized microfuge tube by centrifugation. Proteins were then alkylated with 108 mM iodoacetamid. Proteins were then separated by SDS-Polyacrylamide electrophoresis (SDS-PAGE). The peptide extracts of samples treated with 10 μM of free compound (CZC31326) and the solvent control (0.5% DMSO) were treated with different variants of the isobaric tagging reagent (iTRAQ Reagents Multiplex Kit, part number 4352135, Applied Biosystems, Foster City, Calif., USA). The iTRAQ reagents are a set of multiplexed, amine-specific, stable isotope reagents that can label peptides on amino groups in up to four different biological samples enabling simultaneous identification and quantitation of peptides. The iTRAQ reagents were used according to instructions provided by the manufacturer. The samples were resuspended in 10 μl 50 mM TEAB solution, pH 8.5 and 10 μl ethanol were added. The iTRAQ reagent was dissolved in 120 μl ethanol and 10 μl of reagent solution were added to the sample. The labeling reaction was performed at room temperature for one hour on a horizontal shaker and stopped by adding 5 μl of 100 mM TEAB and 100 mM glycine in water. The two labeled sampled were then combined, dried in a vacuum centrifuge and resuspended in 10 μl of 0.1% formic acid in water. Relative protein quantitation was performed using peak areas of iTRAQ reporter ion signals essentially as described in an earlier publication (Bantscheff et al., 2007. Nature Biotechnology 25, 1035-1044).
# IRAK3 = IRAK3 (Homo sapiens, UniProt Q9Y616)
# Chain of IRAK3 (Q9Y616 whole entry): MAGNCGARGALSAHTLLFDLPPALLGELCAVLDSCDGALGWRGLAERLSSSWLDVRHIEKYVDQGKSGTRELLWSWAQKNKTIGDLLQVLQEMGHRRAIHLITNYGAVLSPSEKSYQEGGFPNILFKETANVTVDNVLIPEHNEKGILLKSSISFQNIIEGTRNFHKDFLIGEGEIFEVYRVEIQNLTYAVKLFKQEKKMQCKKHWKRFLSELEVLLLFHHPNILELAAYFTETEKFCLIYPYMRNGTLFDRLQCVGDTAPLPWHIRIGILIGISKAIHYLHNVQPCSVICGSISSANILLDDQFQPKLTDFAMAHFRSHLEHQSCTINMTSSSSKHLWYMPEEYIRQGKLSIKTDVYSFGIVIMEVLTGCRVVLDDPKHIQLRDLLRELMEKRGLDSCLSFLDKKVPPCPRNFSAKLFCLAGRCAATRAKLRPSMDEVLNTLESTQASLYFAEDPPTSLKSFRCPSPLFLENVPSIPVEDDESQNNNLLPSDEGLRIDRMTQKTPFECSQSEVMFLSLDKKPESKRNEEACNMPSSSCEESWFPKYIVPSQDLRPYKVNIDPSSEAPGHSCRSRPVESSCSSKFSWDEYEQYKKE
# Protocol: as §1
# PIP5K2C = target: T1, PIP5K2C (Homo sapiens, UniProt Q8TBX8)
# T1 sequence (Q8TBX8 1-421): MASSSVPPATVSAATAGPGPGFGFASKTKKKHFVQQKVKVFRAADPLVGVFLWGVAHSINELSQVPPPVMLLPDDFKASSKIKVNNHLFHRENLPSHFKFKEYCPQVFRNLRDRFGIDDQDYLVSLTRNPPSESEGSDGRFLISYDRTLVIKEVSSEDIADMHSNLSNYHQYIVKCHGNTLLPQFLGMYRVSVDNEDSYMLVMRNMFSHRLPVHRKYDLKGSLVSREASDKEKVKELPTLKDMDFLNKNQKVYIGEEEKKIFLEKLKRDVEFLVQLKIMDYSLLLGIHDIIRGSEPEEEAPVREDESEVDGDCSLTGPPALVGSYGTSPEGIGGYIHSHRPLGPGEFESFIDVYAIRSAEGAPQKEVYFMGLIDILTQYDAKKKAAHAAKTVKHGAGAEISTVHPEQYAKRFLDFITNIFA
# Protocol: as §1
# MYT1 = MYT1 (Homo sapiens, UniProt Q99640)
# Chain of MYT1 (Q99640 whole entry): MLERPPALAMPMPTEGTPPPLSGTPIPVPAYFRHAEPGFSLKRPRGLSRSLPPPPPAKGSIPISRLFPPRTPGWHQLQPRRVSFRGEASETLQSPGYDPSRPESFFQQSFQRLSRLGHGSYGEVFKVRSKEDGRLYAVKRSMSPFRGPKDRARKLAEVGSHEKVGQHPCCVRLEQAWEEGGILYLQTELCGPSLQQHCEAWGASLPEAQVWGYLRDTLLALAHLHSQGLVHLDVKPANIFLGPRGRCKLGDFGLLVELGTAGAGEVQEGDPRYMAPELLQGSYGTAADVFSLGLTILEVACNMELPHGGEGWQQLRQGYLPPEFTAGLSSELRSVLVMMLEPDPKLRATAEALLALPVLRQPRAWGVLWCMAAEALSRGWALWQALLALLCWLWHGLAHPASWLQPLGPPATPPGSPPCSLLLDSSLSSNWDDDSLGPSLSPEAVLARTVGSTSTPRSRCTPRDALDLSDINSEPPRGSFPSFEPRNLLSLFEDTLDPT
# Protocol: as §1
# TAO3 = target: T2, TAO3 (Homo sapiens, UniProt Q9H2K8)
# T2 sequence (Q9H2K8 1-898): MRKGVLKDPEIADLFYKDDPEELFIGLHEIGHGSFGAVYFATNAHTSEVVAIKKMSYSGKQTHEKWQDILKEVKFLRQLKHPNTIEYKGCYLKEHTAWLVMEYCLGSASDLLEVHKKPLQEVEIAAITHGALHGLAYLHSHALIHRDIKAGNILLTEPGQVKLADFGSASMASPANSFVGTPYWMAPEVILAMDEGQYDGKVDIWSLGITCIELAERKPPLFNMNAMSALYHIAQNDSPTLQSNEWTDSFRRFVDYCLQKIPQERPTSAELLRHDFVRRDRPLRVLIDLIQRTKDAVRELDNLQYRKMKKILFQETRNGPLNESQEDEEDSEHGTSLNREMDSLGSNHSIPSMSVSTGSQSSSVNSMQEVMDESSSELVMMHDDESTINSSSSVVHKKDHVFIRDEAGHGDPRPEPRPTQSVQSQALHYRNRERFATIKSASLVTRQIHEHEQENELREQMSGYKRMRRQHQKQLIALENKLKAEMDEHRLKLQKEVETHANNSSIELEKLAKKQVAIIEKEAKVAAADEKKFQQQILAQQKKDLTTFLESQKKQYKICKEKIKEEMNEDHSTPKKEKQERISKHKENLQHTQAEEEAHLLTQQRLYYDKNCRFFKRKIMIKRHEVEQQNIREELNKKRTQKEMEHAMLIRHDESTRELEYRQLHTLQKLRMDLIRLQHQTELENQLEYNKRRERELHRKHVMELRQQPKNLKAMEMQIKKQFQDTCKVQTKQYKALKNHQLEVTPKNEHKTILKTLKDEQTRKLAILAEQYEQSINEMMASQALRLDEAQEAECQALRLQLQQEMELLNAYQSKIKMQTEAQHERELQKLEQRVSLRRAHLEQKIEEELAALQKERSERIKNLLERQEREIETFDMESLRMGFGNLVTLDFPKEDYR
# Protocol: as §1
# Chain of MPSK1 (O75716 whole entry): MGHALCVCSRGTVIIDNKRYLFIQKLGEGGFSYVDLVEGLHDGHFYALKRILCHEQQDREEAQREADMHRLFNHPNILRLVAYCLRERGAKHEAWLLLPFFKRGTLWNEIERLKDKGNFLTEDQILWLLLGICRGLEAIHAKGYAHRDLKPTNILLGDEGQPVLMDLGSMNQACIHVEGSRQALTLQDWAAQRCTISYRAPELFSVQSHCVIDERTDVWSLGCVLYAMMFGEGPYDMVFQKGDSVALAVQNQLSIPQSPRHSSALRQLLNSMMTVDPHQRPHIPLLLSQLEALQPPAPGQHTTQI
smiles,measurement,setting,value
"CS(=O)(=O)Nc1ccccc1Nc1nc(Nc2cccc(OCCN)c2)ncc1Cl [CZC31326, N-(2-(2-(3-(2-aminoethoxy)phenylamino)-5-chloropyrimidin-4-ylamino)phenyl)methanesulfonamide]",inhibition at 10 µM,MPSK1,93.4%
same,inhibition at 10 µM,IRAK3,97.2%
same,inhibition at 10 µM,PIP5K2C,98.3%
same,Competition %,MYT1,90.5%
same,inhibition at 10 µM,TAO3,98%
